Measurements as given in patent US20060264460A1 (Wyeth, priority 2005, published 2006).
pIC50: −log10 of the molar value.

These compounds were tested against T1, human Cot/Tpl2 kinase (Homo sapiens, UniProt P41279) (assay: Tpl2/Cot kinase assay: GST-MEK1 phosphorylation detected by ELISA (DELFIA Eu)). Details: Table 2; Tpl2/Cot kinase, GST-MEK1 substrate, 50 uM ATP.
T1 construct: human Cot/Tpl2 kinase construct encoding residues 30-398; 6His (N); made in house; host or cells: Sf9 insect cells, baculovirus system (BD Biosciences)
T1 sequence (P41279 30-398): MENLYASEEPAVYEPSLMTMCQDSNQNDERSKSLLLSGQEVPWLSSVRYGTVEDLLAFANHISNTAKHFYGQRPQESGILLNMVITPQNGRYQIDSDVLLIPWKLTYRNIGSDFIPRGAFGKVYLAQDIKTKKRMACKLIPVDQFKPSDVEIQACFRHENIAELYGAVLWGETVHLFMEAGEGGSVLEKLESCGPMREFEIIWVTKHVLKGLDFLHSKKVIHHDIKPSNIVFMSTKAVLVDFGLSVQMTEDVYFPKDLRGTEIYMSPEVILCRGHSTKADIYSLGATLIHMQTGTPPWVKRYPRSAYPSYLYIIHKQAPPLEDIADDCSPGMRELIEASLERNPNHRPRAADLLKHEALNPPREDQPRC
Assay type: biochemical
Procedure, shortened: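 His-tagged human Tpl2 from Sf9 cells, Ni-affinity and size-exclusion purified (monomer). 0.4 nM Tpl2 with 35 nM GST-MEK1, 50 uM ATP, MOPS pH 7.2, 1% DMSO, 1 h at 30° C; EDTA stop. MEK1 Ser217/221 phosphorylation detected by anti-phospho-MEK1 and Eu-labelled secondary ELISA; IC50 fitted.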

SMILES | pIC50
C=Cc1cc(NCc2cnc[nH]2)cc2c(Nc3ccc(F)c(Cl)c3)c(C#N)cnc12 [Example 457] | 6.77
N#Cc1cnc2c(Cl)cc(NCc3cccc(O)c3O)cc2c1Nc1ccc(F)c(Cl)c1 [Example 458] | 5.89
CC(=O)c1cc(NCc2cnc[nH]2)cc2c(Nc3ccc(F)c(Cl)c3)c(C#N)cnc12 [Example 459] | 7.64
CN(C)CC#Cc1ncn(COCc2ccccc2)c1CNc1cc(Cl)c2ncc(C#N)c(Nc3ccc(F)c(Cl)c3)c2c1 [Example 460] | 5.70
CN(C)CCCc1nc[nH]c1CNc1cc(Cl)c2ncc(C#N)c(Nc3ccc(F)c(Cl)c3)c2c1 [Example 461] | 6.89
N#Cc1cnc2c(CCO)cc(NCc3cnc[nH]3)cc2c1Nc1ccc(F)c(Cl)c1 [Example 462] | 5.92
CC(O)c1cc(NCc2cnc[nH]2)cc2c(Nc3ccc(F)c(Cl)c3)c(C#N)cnc12 (centres unmarked) [Example 463] | 6.59
N#Cc1cnc2c(CO)cc(NCc3cnc[nH]3)cc2c1Nc1ccc(F)c(Cl)c1 [Example 464] | 6.24
N#Cc1cnc2c(Cl)cc(NCC(=O)O)cc2c1Nc1ccc(F)c(Cl)c1 [Example 465] | 7.29
Cn1nnc(CNc2cc(Cl)c3ncc(C#N)c(Nc4ccc(F)c(Cl)c4)c3c2)n1 [Example 466] | 6.64
Cn1nnc(CCNc2cc(Cl)c3ncc(C#N)c(Nc4ccc(F)c(Cl)c4)c3c2)n1 [Example 467] | 5.92
CN1CCN(C(=O)CNc2cc(Cl)c3ncc(C#N)c(Nc4ccc(F)c(Cl)c4)c3c2)CC1 [Example 468] | 6.44
Cn1nnnc1CCNc1cc(Cl)c2ncc(C#N)c(Nc3ccc(F)c(Cl)c3)c2c1 [Example 469] | 6.77
N#Cc1cnc2c(Cl)cc(NCC(=O)N3CCNCC3)cc2c1Nc1ccc(F)c(Cl)c1 [Example 470] | 6.38
CON(C)C(=O)CNc1cc(Cl)c2ncc(C#N)c(Nc3ccc(F)c(Cl)c3)c2c1 [Example 471] | < 4.40
CONC(=O)CNc1cc(Cl)c2ncc(C#N)c(Nc3ccc(F)c(Cl)c3)c2c1 [Example 472] | 6.80
CNC(=O)CNc1cc(Cl)c2ncc(C#N)c(Nc3ccc(F)c(Cl)c3)c2c1 [Example 473] | 6.33
CN(C)C(=O)CNc1cc(Cl)c2ncc(C#N)c(Nc3ccc(F)c(Cl)c3)c2c1 [Example 474] | 5.77
CCOC(=O)CNc1cc(Cl)c2ncc(C#N)c(Nc3ccc(F)c(Cl)c3)c2c1 [Example 475] | 5.85
CCc1[nH]cnc1CNc1cc(Cl)c2ncc(C#N)c(Nc3ccc(F)c(Cl)c3)c2c1 [Example 476] | 7.80
N#Cc1cnc2c(Br)cc(N(Cc3cn(CCN4CCOCC4)nn3)Cc3cn(CCN4CCOCC4)nn3)cc2c1Nc1ccc(F)c(Cl)c1 [Example 477] | < 4.40
Cn1cnc(CNc2cc(Cl)c3ncc(C#N)c(Nc4ccc(F)c(Cl)c4)c3c2)n1 [Example 478] | 6.28
N#Cc1cnc2c(Br)cc(NCc3cn(C45CC6CC(CC(C6)C4)C5)nn3)cc2c1Nc1ccc(F)c(Cl)c1 [Example 479] | 5.77
CN(C)CCCn1cc(CNc2cc(Br)c3ncc(C#N)c(Nc4ccc(F)c(Cl)c4)c3c2)nn1 [Example 480] | 7.70

SMILES | pIC50
CN(C)CCn1cc(CNc2cc(Br)c3ncc(C#N)c(Nc4ccc(F)c(Cl)c4)c3c2)nn1 [Example 481] | 7.62
N#Cc1cnc2c(Br)cc(NCc3cncn3CCN3CCOCC3)cc2c1Nc1ccc(F)c(Cl)c1 [Example 482] | 6.80
N#Cc1cnc2c(Cl)cc(NCc3nc[nH]n3)cc2c1Nc1ccc(F)c(Cl)c1 [Example 483] | 7.00
N#Cc1cnc2c(Br)cc(NCc3nc[nH]n3)cc2c1Nc1ccc(F)c(Cl)c1 [Example 484] | 6.96
Cn1cnc(CNc2cc(Br)c3ncc(C#N)c(Nc4ccc(F)c(Cl)c4)c3c2)n1 [Example 486] | 6.70
CC(O)Cn1cc(CNc2cc(Br)c3ncc(C#N)c(Nc4ccc(F)c(Cl)c4)c3c2)nn1 (centres unmarked) [Example 487] | 7.96
N#Cc1cnc2c(Br)cc(NCc3cn(CCN4CCOCC4)cn3)cc2c1Nc1ccc(F)c(Cl)c1 [Example 488] | 7.39
N#Cc1cnc2c(Cl)cc(NCc3cncn3CCN3CCOCC3)cc2c1Nc1ccc(F)c(Cl)c1 [Example 489] | 7.21
N#Cc1cnc2c(Cl)cc(NCc3cn(CCN4CCOCC4)cn3)cc2c1Nc1ccc(F)c(Cl)c1 [Example 490] | 7.48
N#Cc1cnc2c(Cl)cc(NCc3cn(CC(F)(F)F)nn3)cc2c1Nc1ccc(F)c(Cl)c1 [Example 491] | 7.64
CC(C)(C)OC(=O)N1CCC(n2cc(CNc3cc(Br)c4ncc(C#N)c(Nc5ccc(F)c(Cl)c5)c4c3)nn2)CC1 [Example 493] | 6.60
CC(C)(C)OC(=O)N1CCC(Cn2cc(CNc3cc(Br)c4ncc(C#N)c(Nc5ccc(F)c(Cl)c5)c4c3)nn2)CC1 [Example 494] | 6.77
N#Cc1cnc2c(Br)cc(NCc3cn(Cc4ccncc4)nn3)cc2c1Nc1ccc(F)c(Cl)c1 [Example 495] | 8.32
N#Cc1cnc2c(Br)cc(NCc3cn(CC4CCNCC4)nn3)cc2c1Nc1ccc(F)c(Cl)c1 [Example 496] | 7.33
N#Cc1cnc2c(Br)cc(NCc3cn(CC(F)(F)F)nn3)cc2c1Nc1ccc(F)c(Cl)c1 [Example 498] | 7.00
CN1CCC(Cn2cc(CNc3cc(Br)c4ncc(C#N)c(Nc5ccc(F)c(Cl)c5)c4c3)nn2)CC1 [Example 499] | 7.92
CN(CCn1cc(CNc2cc(Br)c3ncc(C#N)c(Nc4ccc(F)c(Cl)c4)c3c2)nn1)C(=O)OC(C)(C)C [Example 500] | 7.17
CN(CCn1cc(CN(Cc2cn(CCN(C)C(=O)OC(C)(C)C)nn2)c2cc(Br)c3ncc(C#N)c(Nc4ccc(F)c(Cl)c4)c3c2)nn1)C(=O)OC(C)(C)C [Example 501] | 5.33
CN(CCn1cc(CNc2cc(Cl)c3ncc(C#N)c(Nc4ccc(F)c(Cl)c4)c3c2)nn1)C(=O)OC(C)(C)C [Example 502] | 7.32
CC(C)(C)OC(=O)N1CCC(CCn2cc(CNc3cc(Br)c4ncc(C#N)c(Nc5ccc(F)c(Cl)c5)c4c3)nn2)CC1 [Example 503] | 6.89
CC(C)(C)OC(=O)N1CCC(CCn2cc(CNc3cc(Cl)c4ncc(C#N)c(Nc5ccc(F)c(Cl)c5)c4c3)nn2)CC1 [Example 504] | 7.12
CN1CCC(Cn2cc(CN(C)c3cc(Br)c4ncc(C#N)c(Nc5ccc(F)c(Cl)c5)c4c3)nn2)CC1 [Example 505] | 6.54
CN1CCC(n2cc(CN(C)c3cc(Br)c4ncc(C#N)c(Nc5ccc(F)c(Cl)c5)c4c3)nn2)CC1 [Example 506] | 7.66
COCCCc1nc[nH]c1CNc1cc(Br)c2ncc(C#N)c(Nc3ccc(F)c(Cl)c3)c2c1 [Example 507] | 7.21

SMILES | pIC50
CSCCn1cc(CNc2cc(Br)c3ncc(C#N)c(Nc4ccc(F)c(Cl)c4)c3c2)nn1 [Example 508] | 7.09
CC(C)(C)OC(=O)N1CCC(CCn2cc(CN(Cc3cn(CCC4CCN(C(=O)OC(C)(C)C)CC4)nn3)c3cc(Br)c4ncc(C#N)c(Nc5ccc(F)c(Cl)c5)c4c3)nn2)CC1 [Example 509] | < 5.52
N#Cc1cnc2c(Br)cc(NCc3cn(CCO)nn3)cc2c1Nc1ccc(F)c(Cl)c1 [Example 510] | 7.55
CS(=O)(=O)CCn1cc(CNc2cc(Br)c3ncc(C#N)c(Nc4ccc(F)c(Cl)c4)c3c2)nn1 [Example 511] | 7.04
CNCCn1cc(CNc2cc(Br)c3ncc(C#N)c(Nc4ccc(F)c(Cl)c4)c3c2)nn1 [Example 512] | 7.42
CNCCn1cc(CNc2cc(Cl)c3ncc(C#N)c(Nc4ccc(F)c(Cl)c4)c3c2)nn1 [Example 513] | 7.54
CN(C)CCCn1cc(CNc2cc(Cl)c3ncc(C#N)c(Nc4ccc(F)c(Cl)c4)c3c2)nn1 [Example 514] | 7.41
N#Cc1cnc2c(Cl)cc(NCc3cn(CCN4CCCC4)nn3)cc2c1Nc1ccc(F)c(Cl)c1 [Example 515] | 7.40
N#Cc1cnc2c(Br)cc(NCc3cn(CCC4CCNCC4)nn3)cc2c1Nc1ccc(F)c(Cl)c1 [Example 517] | 7.05
CN1CCC(CCn2cc(CNc3cc(Br)c4ncc(C#N)c(Nc5ccc(F)c(Cl)c5)c4c3)nn2)CC1 [Example 520] | 7.36
CN1CCC(CCn2cc(CNc3cc(Cl)c4ncc(C#N)c(Nc5ccc(F)c(Cl)c5)c4c3)nn2)CC1 [Example 521] | 7.42
COCCn1cc(CNc2cc(Br)c3ncc(C#N)c(Nc4ccc(F)c(Cl)c4)c3c2)nn1 [Example 522] | 7.74
N#Cc1cnc2c(Br)cc(NCc3cn(CCCO)nn3)cc2c1Nc1ccc(F)c(Cl)c1 [Example 523] | 7.74
N#Cc1cnc2c(Br)cc(NCc3cn(CCS(=O)(=O)C4CCCC4)nn3)cc2c1Nc1ccc(F)c(Cl)c1 [Example 524] | 7.28
CS(=O)(=O)N1CCC(n2cc(CNc3cc(Br)c4ncc(C#N)c(Nc5ccc(F)c(Cl)c5)c4c3)nn2)CC1 [Example 525] | 8.96
N#Cc1cnc2c(Br)cc(NCc3cnc4ccccn34)cc2c1Nc1ccc(F)c(Cl)c1 [Example 526] | 6.55
Fc1ccc(Nc2ncncc2-c2ccc(NCc3cnc[nH]3)cc2)cc1Cl [Example 527] | < 5.52
N#Cc1cnc2c(Br)cc(NCc3cnc4cnccn34)cc2c1Nc1ccc(F)c(Cl)c1 [Example 528] | 6.96
CS(=O)(=O)CCn1cnc(CNc2cc(Br)c3ncc(C#N)c(Nc4ccc(F)c(Cl)c4)c3c2)c1 [Example 529] | 7.37
CSCn1cc(CNc2cc(Br)c3ncc(C#N)c(Nc4ccc(F)c(Cl)c4)c3c2)nn1 [Example 530] | 7.92
CS(=O)(=O)Cn1cc(CNc2cc(Br)c3ncc(C#N)c(Nc4ccc(F)c(Cl)c4)c3c2)nn1 [Example 531] | 7.48
C[S+]([O-])Cn1cc(CNc2cc(Br)c3ncc(C#N)c(Nc4ccc(F)c(Cl)c4)c3c2)nn1 (centres unmarked) [Example 532] | 6.92
N#Cc1cnc2c(Br)cc(NCc3cn(Cc4cccnc4)cn3)cc2c1Nc1ccc(F)c(Cl)c1 [Example 533] | 8.51
